Target: T1, HIV protease (Human immunodeficiency virus type 1 group M subtype B, UniProt P04585)
T1 construct: the protease expressed in Eschericia coli; made in house; host or cells: Escherichia coli
Assay: Assay for Inhibition of Microbial Expressed Viral Protease
Format: biochemical
Conditions: protease expressed in Eschericia coli; peptide substrate Val-Ser-Gln-Asn-(betanapthyl)Ala-Pro-lie-Val 0.5 mg/ml; 50 mM Na acetate, pH 5.5, 30° C, 1 hr; HPLC readout
Experimental: Assay for Inhibition of Microbial Expressed Viral Protease
Inhibition studies of the reaction of the protease expressed in Eschericia coli with a peptide substrate [Val-Ser-Gln-Asn-(betanapthyl)Ala-Pro-lie-Val, 0.5 mg/ml at the time the reaction is initiated] were in 50 mM Na acetate, pH 5.5, at 30° C for 1 hr. Various concentrations of inhibitor in 1.0 ul DMSO were added to 25 ul of the peptide solution in water. The reaction is initiated by the addition of 15 ul of 0.33 nM protease (0.11 ng) in a solution of 0.133 M Na acetate pH 5.5 and 0.267% bovine serum albumin. The reaction was quenched with 160 ul of 5% phosphoric acid. Products of the reaction were separated by HPLC (VYDAC wide pore 5 cm C-18 reverse phase, acetonitrile gradient, 0.1% phosphoric acid). The extent of inhibition of the reaction was determined from the peak heights of the products.

IC50, 0.5 to 10 nM:
CC[C@H](C)[C@H](NC(=O)[C@H](Cc1ccccc1)C[C@H](O)[C@H](Cc1ccccc1)NC(=O)CCC(=O)O)C(=O)NCc1ccccc1 [Compound F, N-benzyl-N'-(succinoyl)-5(S)-amino-4(S)-hydroxy-6-phenyl-2(R)-(phenylmethyl)hexanoyl isoleucyl amide]
O=C1CC[C@@H](C(=O)N[C@@H](Cc2ccccc2)[C@@H](O)C[C@@H](Cc2ccccc2)C(=O)N[C@H]2c3ccccc3C[C@H]2O)O1 [Compound J, N-(2(R)-hydroxy-1 (S)-indanyl)-N'-(5-oxo-2(S)-tetrahydrofuranylcarbonyl)-5(S)-amino-4(S)-hydroxy-6-phenyl-2(R)-(phenylmethyl)hexanamide]
O=C(O)CCC(=O)N[C@@H](Cc1ccccc1)[C@@H](O)C[C@@H](Cc1ccccc1)C(=O)N[C@H]1c2ccccc2C[C@H]1O [Compound G, N-(2(R)-hydroxy-1 (S)-indanyl)-N'-(succinoyl)-5(S)-amino-4(S)-hydroxy-6-phenyl-2(R)-(phenylmethyl)-hexanamide]
CS(=O)(=O)N[C@@H](Cc1ccccc1)[C@@H](O)C[C@@H](Cc1ccccc1)C(=O)N[C@H]1c2ccccc2C[C@H]1O [Compound H, N-(2(R)-hydroxy-1 (S)-indanyl)-N'-(methanesulfonyl)-5(S)-amino-4(S)-hydroxy-6-phenyl-2(R)-(phenylmethyl)-hexanamide]

— EP0356223A2, “HIV protease inhibitors useful for the treatment of aids” (MERCK & CO. INC., priority 1988, dated 1990)
